According to the NIST ThermoML archive (doi:10.1021/je060271a):
± gives the expanded uncertainty stated by the source.

Details: 283.15 K, Liquid, Vibrating tube method

CCCCCCCC(=O)OCC(COC(=O)CCCCCCC)(COC(=O)CCCCCCC)COC(=O)CCCCCCC [pentaerythritol tetraoctanoate] showed a mass density (24659 kPa) of 983.6 ± 1.2 kg/m3, a mass density (24685 kPa) of 983.7 ± 1.2 kg/m3 and a mass density (24711 kPa) of 983.7 ± 1.2 kg/m3. The mass density (24742 kPa) was 983.8 ± 1.2 kg/m3, the mass density (24769 kPa) was 983.8 ± 1.2 kg/m3 and the mass density (24795 kPa) was 983.8 ± 1.2 kg/m3. For the same molecule, the mass density (24827 kPa) was 983.7 ± 1.2 kg/m3, the mass density (24853 kPa) was 983.8 ± 1.2 kg/m3 and the mass density (24885 kPa) was 983.8 ± 1.2 kg/m3. It also gave a mass density (24912 kPa) of 983.7 ± 1.2 kg/m3, a mass density (24938 kPa) of 983.8 ± 1.2 kg/m3 and a mass density (24965 kPa) of 983.8 ± 1.2 kg/m3. It also gave a mass density (24997 kPa) of 983.8 ± 1.2 kg/m3, a mass density (25024 kPa) of 983.8 ± 1.2 kg/m3 and a mass density (25051 kPa) of 983.9 ± 1.2 kg/m3. It also gave a mass density (25084 kPa) of 983.9 ± 1.2 kg/m3, a mass density (25110 kPa) of 983.9 ± 1.2 kg/m3 and a mass density (25143 kPa) of 983.8 ± 1.2 kg/m3. For the same molecule, the mass density (25170 kPa) was 983.9 ± 1.2 kg/m3, the mass density (25197 kPa) was 984 ± 1.2 kg/m3 and the mass density (25229 kPa) was 984 ± 1.2 kg/m3. For the same molecule, the mass density (25256 kPa) was 984 ± 1.2 kg/m3, the mass density (25284 kPa) was 984 ± 1.2 kg/m3 and the mass density (25312 kPa) was 984 ± 1.2 kg/m3. The mass density (25344 kPa) was 984 ± 1.2 kg/m3, the mass density (25372 kPa) was 984 ± 1.2 kg/m3 and the mass density (25405 kPa) was 983.9 ± 1.2 kg/m3. For the same molecule, the mass density (25433 kPa) was 984.1 ± 1.2 kg/m3, the mass density (25461 kPa) was 984.1 ± 1.2 kg/m3 and the mass density (25494 kPa) was 984.1 ± 1.2 kg/m3. For the same molecule, the mass density (25521 kPa) was 984.2 ± 1.2 kg/m3, the mass density (25549 kPa) was 984.1 ± 1.2 kg/m3 and the mass density (25583 kPa) was 984.1 ± 1.2 kg/m3. The mass density (25611 kPa) was 984.2 ± 1.2 kg/m3, the mass density (25639 kPa) was 984.2 ± 1.2 kg/m3 and the mass density (25673 kPa) was 984.2 ± 1.2 kg/m3. The mass density (25701 kPa) was 984.1 ± 1.2 kg/m3, the mass density (25730 kPa) was 984.4 ± 1.2 kg/m3 and the mass density (25758 kPa) was 984.3 ± 1.2 kg/m3. It also gave a mass density (25792 kPa) of 984.2 ± 1.2 kg/m3, a mass density (25821 kPa) of 984.3 ± 1.2 kg/m3 and a mass density (25850 kPa) of 984.3 ± 1.2 kg/m3. The mass density (25884 kPa) was 984.3 ± 1.2 kg/m3, the mass density (25912 kPa) was 984.3 ± 1.2 kg/m3 and the mass density (25941 kPa) was 984.2 ± 1.2 kg/m3. The mass density (25976 kPa) was 984.3 ± 1.2 kg/m3, the mass density (26004 kPa) was 984.3 ± 1.2 kg/m3 and the mass density (26034 kPa) was 984.5 ± 1.2 kg/m3. It also gave a mass density (26069 kPa) of 984.4 ± 1.2 kg/m3, a mass density (26098 kPa) of 984.3 ± 1.2 kg/m3 and a mass density (26126 kPa) of 984.4 ± 1.2 kg/m3. The mass density (26162 kPa) was 984.4 ± 1.2 kg/m3, the mass density (26191 kPa) was 984.5 ± 1.2 kg/m3 and the mass density (26220 kPa) was 984.4 ± 1.2 kg/m3. The mass density (26250 kPa) was 984.4 ± 1.2 kg/m3, the mass density (26286 kPa) was 984.5 ± 1.2 kg/m3 and the mass density (26315 kPa) was 984.5 ± 1.2 kg/m3. It also gave a mass density (26350 kPa) of 984.6 ± 1.2 kg/m3, a mass density (26380 kPa) of 984.6 ± 1.2 kg/m3 and a mass density (26411 kPa) of 984.6 ± 1.2 kg/m3. For the same molecule, the mass density (26442 kPa) was 984.6 ± 1.2 kg/m3, the mass density (26478 kPa) was 984.6 ± 1.2 kg/m3 and the mass density (26508 kPa) was 984.6 ± 1.2 kg/m3. It also gave a mass density (26538 kPa) of 984.6 ± 1.2 kg/m3, a mass density (26568 kPa) of 984.6 ± 1.2 kg/m3 and a mass density (26604 kPa) of 984.5 ± 1.2 kg/m3. It also gave a mass density (26634 kPa) of 984.6 ± 1.2 kg/m3, a mass density (26666 kPa) of 984.6 ± 1.2 kg/m3 and a mass density (26702 kPa) of 984.7 ± 1.2 kg/m3. For the same molecule, the mass density (26733 kPa) was 984.7 ± 1.2 kg/m3, the mass density (26770 kPa) was 984.7 ± 1.2 kg/m3 and the mass density (26802 kPa) was 984.7 ± 1.2 kg/m3. For the same molecule, the mass density (26834 kPa) was 984.8 ± 1.2 kg/m3, the mass density (26866 kPa) was 984.8 ± 1.2 kg/m3 and the mass density (26897 kPa) was 984.8 ± 1.2 kg/m3. For the same molecule, the mass density (26929 kPa) was 984.9 ± 1.2 kg/m3, the mass density (26966 kPa) was 984.8 ± 1.2 kg/m3 and the mass density (26997 kPa) was 984.8 ± 1.2 kg/m3. For the same molecule, the mass density (27034 kPa) was 984.8 ± 1.2 kg/m3, the mass density (27066 kPa) was 984.8 ± 1.2 kg/m3 and the mass density (27098 kPa) was 984.9 ± 1.2 kg/m3. It also gave a mass density (27129 kPa) of 984.9 ± 1.2 kg/m3, a mass density (27167 kPa) of 984.9 ± 1.2 kg/m3 and a mass density (27199 kPa) of 985 ± 1.2 kg/m3. It also gave a mass density (27237 kPa) of 985.1 ± 1.2 kg/m3, a mass density (27270 kPa) of 984.9 ± 1.2 kg/m3 and a mass density (27302 kPa) of 985.1 ± 1.2 kg/m3. The mass density (27340 kPa) was 985.1 ± 1.2 kg/m3, the mass density (27372 kPa) was 985 ± 1.2 kg/m3 and the mass density (27404 kPa) was 985 ± 1.2 kg/m3. It also gave a mass density (27437 kPa) of 985 ± 1.2 kg/m3, a mass density (27476 kPa) of 985.2 ± 1.2 kg/m3 and a mass density (27508 kPa) of 985.2 ± 1.2 kg/m3. For the same molecule, the mass density (27546 kPa) was 985.1 ± 1.2 kg/m3, the mass density (27579 kPa) was 985.1 ± 1.2 kg/m3 and the mass density (27612 kPa) was 985.2 ± 1.2 kg/m3. The mass density (27651 kPa) was 985.2 ± 1.2 kg/m3, the mass density (27685 kPa) was 985.1 ± 1.2 kg/m3 and the mass density (27718 kPa) was 985.1 ± 1.2 kg/m3. The mass density (27752 kPa) was 985.1 ± 1.2 kg/m3, the mass density (27792 kPa) was 985.2 ± 1.3 kg/m3 and the mass density (27825 kPa) was 985.3 ± 1.2 kg/m3. For the same molecule, the mass density (27859 kPa) was 985.3 ± 1.2 kg/m3, the mass density (27899 kPa) was 985.3 ± 1.2 kg/m3 and the mass density (27932 kPa) was 985.4 ± 1.2 kg/m3. It also gave a mass density (27972 kPa) of 985.3 ± 1.2 kg/m3, a mass density (28007 kPa) of 985.3 ± 1.2 kg/m3 and a mass density (28040 kPa) of 985.5 ± 1.2 kg/m3. For the same molecule, the mass density (28074 kPa) was 985.5 ± 1.2 kg/m3, the mass density (28116 kPa) was 985.4 ± 1.2 kg/m3 and the mass density (28150 kPa) was 985.5 ± 1.2 kg/m3. The mass density (28185 kPa) was 985.4 ± 1.2 kg/m3, the mass density (28226 kPa) was 985.4 ± 1.2 kg/m3 and the mass density (28260 kPa) was 985.5 ± 1.2 kg/m3. It also gave a mass density (28302 kPa) of 985.5 ± 1.2 kg/m3, a mass density (28336 kPa) of 985.5 ± 1.2 kg/m3 and a mass density (28371 kPa) of 985.5 ± 1.2 kg/m3. The mass density (28406 kPa) was 985.5 ± 1.2 kg/m3, the mass density (28448 kPa) was 985.5 ± 1.2 kg/m3 and the mass density (28483 kPa) was 985.6 ± 1.2 kg/m3. The mass density (28519 kPa) was 985.5 ± 1.3 kg/m3, the mass density (28561 kPa) was 985.6 ± 1.2 kg/m3 and the mass density (28596 kPa) was 985.7 ± 1.2 kg/m3. The mass density (28632 kPa) was 985.7 ± 1.2 kg/m3, the mass density (28676 kPa) was 985.6 ± 1.2 kg/m3 and the mass density (28712 kPa) was 985.7 ± 1.2 kg/m3. It also gave a mass density (28748 kPa) of 985.8 ± 1.2 kg/m3, a mass density (28784 kPa) of 985.6 ± 1.2 kg/m3 and a mass density (28827 kPa) of 985.7 ± 1.2 kg/m3. It also gave a mass density (28863 kPa) of 985.8 ± 1.2 kg/m3, a mass density (28900 kPa) of 985.8 ± 1.2 kg/m3 and a mass density (28943 kPa) of 985.7 ± 1.2 kg/m3. The mass density (28980 kPa) was 985.8 ± 1.2 kg/m3, the mass density (29017 kPa) was 985.8 ± 1.2 kg/m3 and the mass density (29061 kPa) was 985.9 ± 1.2 kg/m3. The mass density (29097 kPa) was 985.9 ± 1.2 kg/m3, the mass density (29135 kPa) was 985.9 ± 1.2 kg/m3 and the mass density (29173 kPa) was 985.9 ± 1.2 kg/m3. It also gave a mass density (29217 kPa) of 985.8 ± 1.2 kg/m3, a mass density (29255 kPa) of 985.9 ± 1.2 kg/m3 and a mass density (29293 kPa) of 986 ± 1.2 kg/m3. It also gave a mass density (29338 kPa) of 986 ± 1.2 kg/m3, a mass density (29375 kPa) of 986 ± 1.2 kg/m3 and a mass density (29413 kPa) of 986.1 ± 1.2 kg/m3. The mass density (29458 kPa) was 986 ± 1.2 kg/m3, the mass density (29496 kPa) was 986 ± 1.2 kg/m3 and the mass density (29534 kPa) was 986.1 ± 1.2 kg/m3. The mass density (29579 kPa) was 986.1 ± 1.2 kg/m3.
